Experiments:
[1] = target: T1, TYK2 (Homo sapiens, UniProt P29597); test: Competition binding assay to determine Kd against JAK kinases: TYK2
T1 construct: made in house
Method: (§1) Competition binding assays used herein were developed, validated and performed as described in Fabian et al., Nature Biotechnology 2005, 23, 329-336. Kinases were produced as fusions to T7 phage (See, Fabian et al. or WO04/015142) or alternatively, the kinases were expressed in HEK-293 cells and subsequently tagged with DNA for PCR detection (See, WO08/005,310). For the binding assays, streptavidin-coated magnetic beads were treated with biotinylated affinity ligands for 30 min at rt to generate affinity resins. The liganded beads were blocked with excess biotin and washed with blocking buffer (SeaBlock (Pierce), 1% BSA, 0.05% Tween 20, 1 mM DTT) to remove unbound ligand and to reduce non-specific binding. Binding reactions were assembled by combining kinase, liganded affinity beads, and test compounds in 1× binding buffer (20% SeaBlock, 0.17×PBS, 0.05% Tween 20, 6 mM DTT). Test compounds were prepared as 100× stocks in DMSO and rapidly diluted into the aqueous environment. DMSO was added to control assays lacking a test compound. Primary screen interactions were performed in polypropylene 384-well plates in a final volume of 34 μL, while Kd determinations were performed in polystyrene 96-well plates in a final volume of 135 μL. The assay plates were incubated at room temperature with shaking for 1 hour, long enough for binding reactions to reach equilibrium, and the affinity beads were washed extensively with wash buffer (1×PBS, 0.05% Tween 20) to remove unbound protein. The beads were then resuspended in elution buffer (1×PBS, 0.05% Tween 20, 2 μM non-biotinylated affinity ligand) and incubated at room temperature with shaking for 30 min. The kinase concentration in the eluates was measured by quantitative PCR. Each kinase was tested individually against each compound. Kds were determined using eleven serial threefold dilutions. A selectivity score, which is a quantitative measure of selectivity of a compound against a panel of enzymes, may be calculated for a compound by dividing the number of enzymes for which a compound meets a set criteria, (for example, a binding constant of 100 nM or less), by the total number of enzymes tested.

[2] = test system: panel of distinct kinases excluding mutant variants, typically 359 or 386 kinases; test: Kinase selectivity score S10 from competition binding panel; details: compound at 10 μM; fraction of kinases with inhibition of 90% or greater
Method: as §1

[3] = test system: GM-CSFR/JAK2/STAT5 pathway in CSTF-1 cells; test: CSTF-1 cell-based reporter assay (beta-lactamase reporter, GM-CSF stimulated); details: Homo sapiens, GM-CSF at 2 ng/mL, 4 hours, read-out: Cell Assay: CS TF-1 reporter assay IC50
Method: CSTF-1 cells are derived from the human erythroleukemia cell line that is growth dependent on GM-CSF and has an intact GM-CSFR/JAK2/STAT5 pathway. The cell line contains stably integrated beta-lactamase reporter gene under the control of the […] (irf 1) response element recognized by the activated transcription factor STAT5. csTF-1 cells (Invitrogen K1219) were washed with assay media (97% OPTIMEM/0.5% dialyzed FBS/0.1 mM NEAA/1 mM Na pyr/P/S) and seeded in the same media at 5×10^5 cell/mL in T150 flask. After 16 hour incubation, cells were seeded at 2×10^5 cell/well in 50 μl volume, into Costar, clear bottom, 96-well assay plates. Serial dilutions of compounds were added to the plates with final DMSO concentration at 0.5% and GM-CSF at 2 ng/mL and the plates were then incubated at 30° C. and 5% CO2 for 4 hours. The plates were brought to room temperature before adding Substrate Mixture according to manufacturer's protocol (Invitrogen, Catalog #K1085). The assay plates containing the substrate mixture were incubated in the dark at room temperature for 2 hours. Blue and green fluorescence was measured with excitation at 409 nm and emission at 460 nm (for blue) and excitation at 409 nm and emission at 530 nm (for green) using Spectra Max Gemini EM.

[4] = target: T2, JAK3 (Homo sapiens, UniProt P52333); test: Competition binding assay to determine Kd against JAK kinases: JAK3
T2 construct: made in house
T2 sequence (P52333 1-1124): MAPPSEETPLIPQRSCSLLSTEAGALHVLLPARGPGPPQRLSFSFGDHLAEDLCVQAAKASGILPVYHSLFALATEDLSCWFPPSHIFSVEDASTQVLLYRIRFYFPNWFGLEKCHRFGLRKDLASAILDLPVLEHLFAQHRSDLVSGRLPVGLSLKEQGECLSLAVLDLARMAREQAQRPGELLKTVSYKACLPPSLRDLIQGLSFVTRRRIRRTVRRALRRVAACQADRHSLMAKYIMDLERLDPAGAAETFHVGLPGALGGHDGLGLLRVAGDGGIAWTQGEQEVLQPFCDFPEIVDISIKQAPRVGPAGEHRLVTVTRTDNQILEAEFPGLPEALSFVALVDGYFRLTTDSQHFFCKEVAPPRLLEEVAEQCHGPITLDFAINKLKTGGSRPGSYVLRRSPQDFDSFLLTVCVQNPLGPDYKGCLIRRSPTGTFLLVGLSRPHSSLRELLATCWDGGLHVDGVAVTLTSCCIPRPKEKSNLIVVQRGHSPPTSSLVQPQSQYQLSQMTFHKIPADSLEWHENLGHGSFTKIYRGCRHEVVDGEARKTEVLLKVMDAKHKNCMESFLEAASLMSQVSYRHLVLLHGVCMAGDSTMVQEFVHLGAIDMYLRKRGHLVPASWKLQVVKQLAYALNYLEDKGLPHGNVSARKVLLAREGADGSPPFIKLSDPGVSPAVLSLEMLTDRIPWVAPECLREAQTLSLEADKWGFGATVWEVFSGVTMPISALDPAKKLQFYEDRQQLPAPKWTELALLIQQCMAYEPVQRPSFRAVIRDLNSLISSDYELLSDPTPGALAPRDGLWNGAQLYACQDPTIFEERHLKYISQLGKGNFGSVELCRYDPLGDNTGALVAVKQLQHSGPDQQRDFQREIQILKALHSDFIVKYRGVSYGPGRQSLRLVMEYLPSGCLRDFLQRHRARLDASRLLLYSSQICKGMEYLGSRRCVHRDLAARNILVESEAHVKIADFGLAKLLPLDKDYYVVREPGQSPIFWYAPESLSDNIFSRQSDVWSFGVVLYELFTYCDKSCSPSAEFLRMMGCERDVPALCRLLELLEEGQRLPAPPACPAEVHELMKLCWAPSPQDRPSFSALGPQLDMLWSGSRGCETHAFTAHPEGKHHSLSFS
Method: as §1

[5] = target: T3, JAK2 (Homo sapiens, UniProt O60674); test: Competition binding assay to determine Kd against JAK kinases: JAK2
T3 construct: made in house
T3 sequence (O60674 whole entry): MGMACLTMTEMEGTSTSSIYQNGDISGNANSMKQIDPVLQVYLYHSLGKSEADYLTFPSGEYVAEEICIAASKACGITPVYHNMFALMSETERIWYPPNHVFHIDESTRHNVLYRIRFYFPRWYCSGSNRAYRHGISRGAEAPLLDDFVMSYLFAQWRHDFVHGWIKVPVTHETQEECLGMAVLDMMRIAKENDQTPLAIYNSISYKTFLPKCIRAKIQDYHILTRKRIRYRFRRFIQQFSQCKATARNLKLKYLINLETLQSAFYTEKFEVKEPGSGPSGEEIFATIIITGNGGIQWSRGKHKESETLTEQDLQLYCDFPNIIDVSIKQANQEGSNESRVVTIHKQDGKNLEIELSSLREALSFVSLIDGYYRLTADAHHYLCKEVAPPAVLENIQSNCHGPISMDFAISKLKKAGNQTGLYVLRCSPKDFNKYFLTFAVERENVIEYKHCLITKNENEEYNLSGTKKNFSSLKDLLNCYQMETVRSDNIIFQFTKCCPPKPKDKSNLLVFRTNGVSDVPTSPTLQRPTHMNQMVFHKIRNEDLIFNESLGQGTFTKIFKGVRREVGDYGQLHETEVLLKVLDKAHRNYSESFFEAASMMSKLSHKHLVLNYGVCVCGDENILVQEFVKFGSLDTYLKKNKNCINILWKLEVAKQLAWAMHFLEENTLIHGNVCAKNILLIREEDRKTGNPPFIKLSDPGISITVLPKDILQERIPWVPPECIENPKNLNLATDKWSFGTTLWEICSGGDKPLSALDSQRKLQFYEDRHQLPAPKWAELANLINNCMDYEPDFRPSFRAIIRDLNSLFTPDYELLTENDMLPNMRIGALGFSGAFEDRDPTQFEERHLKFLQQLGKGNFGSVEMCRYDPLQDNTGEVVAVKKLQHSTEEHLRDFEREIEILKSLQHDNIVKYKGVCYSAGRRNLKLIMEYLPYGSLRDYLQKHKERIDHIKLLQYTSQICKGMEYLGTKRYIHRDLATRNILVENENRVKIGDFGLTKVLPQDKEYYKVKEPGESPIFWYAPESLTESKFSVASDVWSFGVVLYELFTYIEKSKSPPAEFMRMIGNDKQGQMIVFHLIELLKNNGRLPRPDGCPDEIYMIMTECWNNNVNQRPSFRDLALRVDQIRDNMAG
Method: as §1

T1 sequence (P29597 whole entry): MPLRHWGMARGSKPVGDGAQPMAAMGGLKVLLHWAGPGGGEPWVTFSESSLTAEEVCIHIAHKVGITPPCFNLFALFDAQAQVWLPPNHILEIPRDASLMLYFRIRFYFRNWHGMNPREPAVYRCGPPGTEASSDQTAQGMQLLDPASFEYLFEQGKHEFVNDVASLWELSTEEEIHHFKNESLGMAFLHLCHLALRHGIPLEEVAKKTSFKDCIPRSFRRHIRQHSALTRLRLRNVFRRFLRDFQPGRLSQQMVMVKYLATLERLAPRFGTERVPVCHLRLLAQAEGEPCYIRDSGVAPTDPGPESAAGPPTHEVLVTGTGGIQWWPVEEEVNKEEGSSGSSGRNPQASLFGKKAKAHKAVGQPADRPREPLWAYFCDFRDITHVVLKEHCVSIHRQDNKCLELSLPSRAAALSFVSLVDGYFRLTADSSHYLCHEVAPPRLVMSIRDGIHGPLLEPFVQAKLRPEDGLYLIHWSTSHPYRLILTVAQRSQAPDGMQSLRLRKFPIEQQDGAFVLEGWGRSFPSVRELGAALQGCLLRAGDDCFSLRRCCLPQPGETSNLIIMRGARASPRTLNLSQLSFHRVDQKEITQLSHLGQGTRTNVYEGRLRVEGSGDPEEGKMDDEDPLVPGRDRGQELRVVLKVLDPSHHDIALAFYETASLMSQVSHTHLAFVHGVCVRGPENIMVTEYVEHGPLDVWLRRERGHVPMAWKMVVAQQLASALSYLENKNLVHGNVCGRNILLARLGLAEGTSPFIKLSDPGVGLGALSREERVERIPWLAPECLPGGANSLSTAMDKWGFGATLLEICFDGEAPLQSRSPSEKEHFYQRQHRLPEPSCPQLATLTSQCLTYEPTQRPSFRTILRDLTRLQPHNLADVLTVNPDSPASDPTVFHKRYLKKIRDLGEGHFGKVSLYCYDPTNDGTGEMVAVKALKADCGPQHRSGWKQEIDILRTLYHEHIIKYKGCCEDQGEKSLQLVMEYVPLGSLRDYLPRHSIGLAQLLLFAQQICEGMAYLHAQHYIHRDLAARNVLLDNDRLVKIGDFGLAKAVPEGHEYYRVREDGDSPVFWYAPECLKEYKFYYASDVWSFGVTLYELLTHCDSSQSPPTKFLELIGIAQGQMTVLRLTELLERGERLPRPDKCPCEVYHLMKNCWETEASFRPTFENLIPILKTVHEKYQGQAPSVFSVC

SMILES	Kd [1] [nM]	S-Score: S(10) at 10 μM [2]	IC50 [3] [nM]	Kd [4] [nM]	Kd [5] [nM]
Cc1cnc(Nc2nc([S+]([O-])c3ccc(F)cc3)cc3ccccc23)s1 (stereo not shown) [Example 12, N-(3-(4-fluorophenylsulfinyl)isoquinolin-1-yl)-5-methylthiazol-2-amine]	≤ 10	C (0.4 < C ≦ 0.5)	≤ 100	10 to 100	≤ 5
O=S(=O)(c1ccc(F)cc1)c1cc2ccccc2c(Nc2cc[nH]n2)n1 [Example 14, 3-(4-fluorophenylsulfonyl)-N-(1H-pyrazol-3-yl)isoquinolin-1-amine]	≤ 10	B (0.3 < B ≦ 0.4)	≤ 100	≤ 10	≤ 5
COc1cc(Nc2nc(S(=O)(=O)c3ccc(F)cc3)cc3ccccc23)n[nH]1 [Example 15, 3-(4-fluorophenylsulfonyl)-N-(5-methoxy-1H-pyrazol-3-yl)isoquinolin-1-amine]	≤ 10	D (D > 0.5)	≤ 100	≤ 10	≤ 5
Cc1cc(Nc2nc([S+]([O-])c3ccc(F)cc3)cc3ccccc23)n[nH]1 (stereo not shown) [Example 13, 3-(4-fluorophenylsulfinyl)-N-(5-methyl-1H-pyrazol-3-yl)isoquinolin-1-amine]	≤ 10	D (D > 0.5)	≤ 100	≤ 10	≤ 5
Cc1cc(Nc2nc(C(O)c3ccc(F)cc3)cc3ccccc23)n[nH]1 (racemic) [Example 2, (R,S)-(4-fluorophenyl)(1-(5-methyl-1H-pyrazol-3-ylamino)isoquinolin-3-yl)methanol]	≤ 10		≤ 100	≤ 10	≤ 5
O=S(=O)(c1ccc(F)cc1)c1cc2ccccc2c(Nc2ncco2)n1 [Example 23, N-(3-(4-fluorophenylsulfonyl)isoquinolin-1-yl)oxazol-2-amine]	> 100	A (A ≦ 0.3)	> 500	> 100	> 50
O=S(=O)(c1ccc(F)cc1)c1cc2ccccc2c(Nc2nccs2)n1 [Example 17, N-(3-(4-fluorophenylsulfonyl)isoquinolin-1-yl)thiazol-2-amine]	10 to 100	A (A ≦ 0.3)	100 to 500	10 to 100	≤ 5
Cc1cc(Nc2nc(S(=O)(=O)c3ccc(F)cc3)cc3c(Br)cccc23)n[nH]1 [Example 26, 5-bromo-3-((4-fluorophenyl)sulfonyl)-N-(5-methyl-1H-pyrazol-3-yl)isoquinolin-1-amine]	≤ 10	A (A ≦ 0.3)	≤ 100	≤ 10	≤ 5
O=S(=O)(c1ccc(F)cc1)c1cc2ccccc2c(Nc2cc(O)[nH]n2)n1 [Example 19, 3-(3-(4-fluorophenylsulfonyl)isoquinolin-1-ylamino)-1H-pyrazol-5-ol]	10 to 100	A (A ≦ 0.3)	> 500	> 100	5 to 50
[O-][S+](c1ccc(F)cc1)c1cc2ccccc2c(Nc2nccs2)n1 (stereo not shown) [Example 11, N-(3-(4-fluorophenylsulfinyl)isoquinolin-1-yl)thiazol-2-amine]		A (A ≦ 0.3)	≤ 100	10 to 100	≤ 5
Cc1coc(Nc2nc([S+]([O-])c3ccc(F)cc3)cc3ccccc23)n1 (racemic) [Example 22, (R,S)—N-(3-(4-fluorophenylsulfinyl)isoquinolin-1-yl)-4-methyloxazol-2-amine]		A (A ≦ 0.3)	> 500	> 100	> 50
[2H]C([2H])([2H])n1cnc(Nc2nc(S(=O)(=O)c3ccc(F)cc3)cc3ccccc23)c1 [Example 24, 3-((4-fluorophenyl)sulfonyl)-N-(1-methyl-d3-1H-imidazol-4-yl)isoquinolin-1-amine]	≤ 10	B (0.3 < B ≦ 0.4)	≤ 100	≤ 10	≤ 5
Cc1cc(Nc2nc(S(=O)(=O)c3ccc(F)cc3)cc3ccccc23)n[nH]1 [Example 10, 3-(4-fluorophenylsulfonyl)-N-(5-methyl-1H-pyrazol-3-yl)isoquinolin-1-amine]	≤ 10	D (D > 0.5)	≤ 100	≤ 10	≤ 5
CCn1cnc(Nc2nc(S(=O)(=O)c3ccc(F)cc3)cc3ccccc23)c1 [Example 25, N-(1-ethyl-1H-imidazol-4-yl)-3-((4-fluorophenyl)sulfonyl)isoquinolin-1-amine]	≤ 10	C (0.4 < C ≦ 0.5)	≤ 100	≤ 10	≤ 5
O=S(=O)(c1ccc(F)cc1)c1cc2ccccc2c(Nc2ncns2)n1 [Example 18, N-(3-(4-fluorophenylsulfonyl)isoquinolin-1-yl)-1,2,4-thiadiazol-5-amine]	≤ 10	B (0.3 < B ≦ 0.4)	100 to 500	10 to 100	≤ 5
Cn1cnc(Nc2nc(S(=O)(=O)c3ccc(F)cc3)cc3ccccc23)c1 [Example 20, 3-(4-fluorophenylsulfonyl)-N-(1-methyl-1H-imidazol-4-yl)isoquinolin-1-amine]	≤ 10	C (0.4 < C ≦ 0.5)	≤ 100	≤ 10	≤ 5
Cc1cnc(Nc2nc(S(=O)(=O)c3ccc(F)cc3)cc3ccccc23)s1 [Example 16, N-(3-(4-fluorophenylsulfonyl)isoquinolin-1-yl)-5-methylthiazol-2-amine]	≤ 10	B (0.3 < B ≦ 0.4)	≤ 100	≤ 10	≤ 5
